≈ marks a conversion by molar mass, not a printed value.
Experiments:
Type in all cases: functional
P388 = test: Growth inhibition of mouse P388 cells; settings: read-out: ED50 (the source's name)
HL-60(TB) = test: Growth inhibition of human HL-60(TB) cells
SF-539 = test: Growth inhibition of human SF539 cells
SN12C = test: Growth inhibition of human SN12C cells
XF498 = test: Growth inhibition of human XF498 cells
SNB-78 = test: Growth inhibition of human SNB78 cells
NCI-H522 = test: Growth inhibition of human NCI-H522 cells
M19-MEL = test: Growth inhibition of human M19-MEL cells
EKVX = test: Growth inhibition of human EKVX cells
LOX IMVI = test: Growth inhibition of human LOXIMVI cells
DMS-273 = test: Growth inhibition of human DMS273 cells
RPMI-8226 = test: Growth inhibition of human RPMI8226 cells
HCT-15 = test: Growth inhibition of human HCT15 cells
UACC-62 = test: Growth inhibition of human UACC62 cells
OVCAR-8 = test: Growth inhibition of human OVCAR8 cells; settings: OVCAR-8, read-out: pGI50 (converted)
SW-620 = test: Growth inhibition of human SW620 cells
NCI-H322M = test: Growth inhibition of human NCI-H322M cells
CAKI-1 = test: Growth inhibition of human Caki1 cells
RXF 393 = test: Growth inhibition of human RXF393 cells
ACHN = test: Growth inhibition of human ACHN cells
OVCAR-4 = test: Growth inhibition of human OVCAR4 cells
SNB-19 = test: Growth inhibition of human SNB19 cells
NCI-H226 = test: Growth inhibition of human NCI-H226 cells
SF-268 = test: Growth inhibition of human SF268 cells
DMS-114 = test: Growth inhibition of human DMS114 cells
K562 = test: Growth inhibition of human K562 cells
SR = test: Growth inhibition of human SR cells
A498 = test: Growth inhibition of human A498 cells
NCI-H460 = test: Growth inhibition of human NCI-H460 cells
A549 = test: Growth inhibition of human A549 cells
[1] = Growth inhibition of human LXFL529 cells; settings: LXFL 529
M14 = test: Growth inhibition of human M14 cells
KM12 = test: Growth inhibition of human KM12 cells
HCT-116 = test: Growth inhibition of human HCT116 cells
SK-MEL-2 = test: Growth inhibition of human SK-MEL-2 cells
TK-10 = test: Growth inhibition of human TK10 cells
SK-MEL-28 = test: Growth inhibition of human SK-MEL-28 cells
UO-31 = test: Growth inhibition of human UO31 cells
HOP-18 = test: Growth inhibition of human HOP18 cells
[2] = Growth inhibition of human 786-O cells; settings: 786-0
HOP-92 = test: Growth inhibition of human HOP92 cells
MOLT-4 = test: Growth inhibition of human MOLT4 cells
HCC 2998 = test: Growth inhibition of human HCC2998 cells
Malme-3M = test: Growth inhibition of human MALME-3M cells
HOP-62 = test: Growth inhibition of human HOP62 cells
UACC-257 = test: Growth inhibition of human UACC257 cells
CCRF-CEM = test: Growth inhibition of human CCRF-CEM cells
COLO 205 = test: Growth inhibition of human COLO205 cells
SK-MEL-5 = test: Growth inhibition of human SK-MEL-5 cells
OVCAR-5 = test: Growth inhibition of human OVCAR5 cells
IGROV-1 = test: Growth inhibition of human IGROV1 cells
HT-29 = test: Growth inhibition of human HT-29 cells
KM-20L2 = test: Growth inhibition of human KM20L2 cells
SNB-75 = test: Growth inhibition of human SNB75 cells
DLD-1 = test: Growth inhibition of human DLD1 cells
SK-OV-3 = test: Growth inhibition of human SKOV3 cells
NCI-H23 = test: Growth inhibition of human NCI-H23 cells
U-251 = test: Growth inhibition of human U251 cells
OVCAR-3 = test: Growth inhibition of human OVCAR-3 cells
SF-295 = test: Growth inhibition of human SF295 cells

Compound `CO[C@H]1c2nc3c(nc2C[C@@H]2CC[C@H]4C5=CC[C@@H]6[C@@H](C)[C@]7(OC[C@]56C(=O)C[C@]4(O)[C@]21C)OC(C)(C)C[C@H]7O)C[C@@]1(C)[C@@H](CC[C@H]2C4=C[C@@H]5O[C@]6(O[C@](C)(CO)C[C@H]6O)[C@@H](C)[C@]5(O)[C@@]4(C)[C@H](O)C[C@@H]21)C3` has an EC50 (P388) of 2.5 ng/mL (≈ 2.61 nM).

In the case of `CO[C@H]1c2nc3c(nc2C[C@@H]2CC[C@H]4C5=C[C@@H]6O[C@]7(O[C@](C)(CO)C[C@H]7O)[C@@H](C)[C@]6(O)[C@@]5(C)[C@H](O)C[C@@H]4[C@]21C)C[C@@]1(C)[C@@H](CC[C@H]2C4=CC[C@@H]5[C@H](C)[C@@]6(OC[C@]45C(=O)C[C@@]21O)OC(C)(C)C[C@H]6O)C3` [CEPHALOSTATIN 10], the EC50 (P388) was 3 ng/mL (≈ 3.13 nM).

`C[C@@H]1[C@]2(O[C@H]3C=C4[C@@H]5CC[C@H]6Cc7nc8c(nc7C[C@]6(C)[C@H]5C[C@@H](O)[C@]4(C)[C@]31O)C[C@@H]1CC[C@H]3C4=CC[C@@H]5[C@H](C)[C@@]6(OC[C@]45C(=O)C[C@@H]3[C@@]1(C)C8)OC(C)(C)C[C@H]6O)O[C@](C)(CO)C[C@H]2O` [CEPHALOSTATIN 1] showed a GI50 (HL-60(TB)) of 151 pM, a GI50 (SF-539) of 81.3 pM and a GI50 (SN12C) of 21900 pM. For the same compound, the GI50 (XF498) was 589 pM, the GI50 (SNB-78) was 794 pM and the GI50 (NCI-H522) was 2400 pM. The GI50 (M19-MEL) was 47900 pM, the GI50 (EKVX) was 43600 pM and the GI50 (LOX IMVI) was 240 pM. It also gave a GI50 (DMS-273) of 52.5 pM, a GI50 (RPMI-8226) of 51.3 pM and a GI50 (HCT-15) of 3390 pM. For the same compound, the GI50 (UACC-62) was 389 pM, the GI50 (OVCAR-8) was 24000 pM and the GI50 (SW-620) was 302 pM. For the same compound, the GI50 (NCI-H322M) was 33100 pM, the GI50 (CAKI-1) was 724 pM and the GI50 (RXF 393) was 25.1 pM. For the same compound, the GI50 (ACHN) was 3310 pM, the GI50 (OVCAR-4) was 14100 pM and the GI50 (SNB-19) was 1700 pM. For the same compound, the GI50 (NCI-H226) was 3240 pM, the GI50 (SF-268) was 2190 pM and the GI50 (DMS-114) was 661 pM. For the same compound, the GI50 (K562) was 427 pM, the GI50 (SR) was 288 pM and the GI50 (A498) was 537 pM. The GI50 (NCI-H460) was 309 pM, the GI50 (A549) was 1100 pM and the GI50 [1] was 363 pM. For the same compound, the GI50 (M14) was 490 pM, the GI50 (KM12) was 3240 pM and the GI50 (HCT-116) was 525 pM. The GI50 (SK-MEL-2) was 741 pM, the GI50 (TK-10) was 93300 pM and the GI50 (SK-MEL-28) was 955 pM. It also gave a GI50 (UO-31) of 4170 pM, a GI50 (HOP-18) of 832 pM and a GI50 [2] of 77.6 pM. The GI50 (HOP-92) was 724 pM, the GI50 (MOLT-4) was 200 pM and the GI50 (HCC 2998) was 60300 pM. For the same compound, the GI50 (Malme-3M) was 5250 pM, the GI50 (HOP-62) was 209 pM and the GI50 (UACC-257) was 3720 pM. For the same compound, the GI50 (CCRF-CEM) was 251 pM, the GI50 (COLO 205) was 1700 pM and the GI50 (SK-MEL-5) was 3470 pM. For the same compound, the GI50 (OVCAR-5) was 10000 pM, the GI50 (IGROV-1) was 2190 pM and the GI50 (HT-29) was 2000 pM. It also gave a GI50 (KM-20L2) of 2000 pM, a GI50 (SNB-75) of 81.3 pM and a GI50 (DLD-1) of 8510 pM. For the same compound, the GI50 (SK-OV-3) was 7080 pM, the GI50 (NCI-H23) was 339 pM and the GI50 (U-251) was 64.6 pM. It also gave a GI50 (OVCAR-3) of 30900 pM and a GI50 (SF-295) of 43.6 pM.
